Experimental data published in patent US20230416240A1, “KAT6 TARGETING COMPOUNDS” (Prelude Therapeutics Incorporated, priority 2022, published 2023).

Target: T1, HiBit tagged KAT6A (Homo sapiens, UniProt Q92794)
T1 construct: host or cells: HeLa
Assay: HiBit KAT6A Degradation Assessment
Type: cell-based
Details: HeLa cells with HiBit tagged KAT6A, 18 h of treatment, 9-point serial dilution
Experimental: The degradation activity of compounds was evaluated by measuring levels of KAT6A protein using the HiBiT system. These studies were conducted in HeLa cells with a HiBit tagged KAT6A. Cells were maintained in a 37° C. incubator at 5% CO2 in EMEM (ATCC, 30-2003) supplemented with 10% v/v FBS (Gibco, 26140-079) and 1% penicillin streptomycin. Cells were seeded in 384-well plates at a density of 2,000 cells/well. Compounds dissolved in DMSO were added in 9-point serial dilution. After 18 h of treatment, KAT6A levels were measured using the Nano-Glo® HiBiT Lytic Detection System (Promega catalog number N3030) per manufacturer's instructions. Luminescence signal was measured with a multimode plate reader (Envision 2105, Perkin Elmer). Luminescence values were normalized to background and DMSO controls to quantify KAT6A for each condition. Results were analyzed, and DC50 and Dmax values obtained using a four-parameter logistic curve fit.

T1 sequence (Q92794 whole entry): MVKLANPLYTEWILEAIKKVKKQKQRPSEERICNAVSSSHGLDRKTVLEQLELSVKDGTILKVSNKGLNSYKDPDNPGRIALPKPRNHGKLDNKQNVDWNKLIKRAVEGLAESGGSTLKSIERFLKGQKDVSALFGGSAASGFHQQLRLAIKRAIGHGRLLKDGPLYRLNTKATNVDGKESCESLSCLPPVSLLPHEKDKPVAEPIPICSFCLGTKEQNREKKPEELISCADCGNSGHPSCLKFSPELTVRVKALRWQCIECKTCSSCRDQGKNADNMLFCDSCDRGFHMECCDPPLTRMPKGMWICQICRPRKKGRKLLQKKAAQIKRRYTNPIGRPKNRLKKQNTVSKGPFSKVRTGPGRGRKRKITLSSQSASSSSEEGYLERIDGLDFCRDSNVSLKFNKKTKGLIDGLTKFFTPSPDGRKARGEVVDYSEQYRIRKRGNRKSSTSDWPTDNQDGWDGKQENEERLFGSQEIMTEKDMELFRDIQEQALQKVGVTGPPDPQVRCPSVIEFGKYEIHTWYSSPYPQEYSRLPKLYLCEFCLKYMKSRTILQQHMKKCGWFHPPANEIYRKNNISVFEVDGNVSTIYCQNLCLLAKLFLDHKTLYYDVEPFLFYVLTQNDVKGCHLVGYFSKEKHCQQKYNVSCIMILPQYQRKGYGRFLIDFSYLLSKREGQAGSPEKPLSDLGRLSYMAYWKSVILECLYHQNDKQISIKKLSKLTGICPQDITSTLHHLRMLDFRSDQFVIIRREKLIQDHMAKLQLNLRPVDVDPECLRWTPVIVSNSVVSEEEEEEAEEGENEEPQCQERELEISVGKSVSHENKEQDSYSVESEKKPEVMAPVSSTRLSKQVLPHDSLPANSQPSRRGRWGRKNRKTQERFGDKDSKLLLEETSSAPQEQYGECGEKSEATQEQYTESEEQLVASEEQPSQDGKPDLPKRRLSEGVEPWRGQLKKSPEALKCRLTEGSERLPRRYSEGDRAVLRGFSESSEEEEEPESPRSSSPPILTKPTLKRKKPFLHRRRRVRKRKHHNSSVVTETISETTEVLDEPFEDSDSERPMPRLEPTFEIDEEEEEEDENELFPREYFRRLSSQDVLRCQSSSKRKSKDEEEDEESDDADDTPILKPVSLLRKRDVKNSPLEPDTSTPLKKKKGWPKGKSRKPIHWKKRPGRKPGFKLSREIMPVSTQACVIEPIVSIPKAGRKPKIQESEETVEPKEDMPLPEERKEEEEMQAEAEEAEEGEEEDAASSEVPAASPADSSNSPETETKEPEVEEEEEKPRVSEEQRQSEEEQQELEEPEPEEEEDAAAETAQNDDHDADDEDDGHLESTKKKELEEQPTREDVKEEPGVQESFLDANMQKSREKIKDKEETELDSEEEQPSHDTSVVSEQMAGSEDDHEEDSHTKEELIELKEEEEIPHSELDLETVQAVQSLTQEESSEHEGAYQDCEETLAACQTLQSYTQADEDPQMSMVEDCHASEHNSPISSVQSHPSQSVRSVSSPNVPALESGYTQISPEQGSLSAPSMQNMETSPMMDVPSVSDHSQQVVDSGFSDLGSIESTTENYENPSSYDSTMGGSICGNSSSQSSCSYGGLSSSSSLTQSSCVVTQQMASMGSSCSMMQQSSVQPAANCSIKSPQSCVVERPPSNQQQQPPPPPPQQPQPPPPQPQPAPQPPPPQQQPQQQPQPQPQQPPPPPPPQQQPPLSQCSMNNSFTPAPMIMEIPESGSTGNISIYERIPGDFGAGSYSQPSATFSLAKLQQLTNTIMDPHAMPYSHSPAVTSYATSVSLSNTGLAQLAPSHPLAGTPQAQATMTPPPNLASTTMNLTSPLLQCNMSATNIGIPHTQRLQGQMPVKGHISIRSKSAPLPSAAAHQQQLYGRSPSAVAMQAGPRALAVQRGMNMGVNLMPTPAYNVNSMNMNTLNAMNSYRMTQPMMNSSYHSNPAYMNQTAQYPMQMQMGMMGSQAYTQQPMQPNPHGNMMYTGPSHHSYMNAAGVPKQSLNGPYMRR

Row | SMILES | DC50 | Dmax
1 | COc1ccc(N2CC3(CCN(C[C@@H]4CCN(c5ccc6c(c5)C(=O)N(C5CCC(=O)NC5=O)C6=O)C4)CC3)C2)c(OC)c1S(=O)(=O)Nc1noc2cc(Cn3cccn3)cc(OC)c12 (stereo partly drawn) [Example 25, N-(6-((1H-Pyrazol-1-yl)methyl)-4-methoxybenzo[d]isoxazol-3-yl)-3-(7-(((3S)-1-(2-(2,6-dioxopiperidin-3-yl)-1,3-dioxoisoindolin-5-yl)pyrrolidin-3-yl)methyl)-2,7-diazaspiro[3.5]nonan-2-yl)-2,6-dimethoxybenzenesulfonamide] | < 10 nM | > 75%
2 | COc1cc(Cn2cccn2)cc2onc(NS(=O)(=O)c3cccc(NC4CCN(C[C@@H]5CCN(c6ccc7c(c6)CN([C@H]6CCC(=O)NC6=O)C7=O)C5)CC4)c3)c12 [Example 38, N-(6-((1H-Pyrazol-1-yl)methyl)-4-methoxybenzo[d]isoxazol-3-yl)-3-((1-(((S)-1-(2-((S)-2,6-dioxopiperidin-3-yl)-1-oxoisoindolin-5-yl)pyrrolidin-3-yl)methyl)piperidin-4-yl)amino)benzenesulfonamide] | 10 to 100 nM | 50 to 75%
3 | COc1cc(Cn2cccn2)cc2onc(NS(=O)(=O)c3cccc(N4CCN(CCOC5CCN(c6ccc7c(c6)C(=O)N(C6CCC(=O)NC6=O)C7=O)CC5)CC4)c3)c12 (stereo not drawn) [Example 17, N-(6-((1H-Pyrazol-1-yl)methyl)-4-methoxybenzo[d]isoxazol-3-yl)-3-(4-(2-((1-(2-(2,6-dioxopiperidin-3-yl)-1,3-dioxoisoindolin-5-yl)piperidin-4-yl)oxy)ethyl)-piperazin-1-yl)benzenesulfonamide] | – | 25 to 50%
4 | COc1cc(Cn2cccn2)cc2onc(NS(=O)(=O)c3cccc(N4CCN(CC5CCN(c6ccc(C(=O)NC7CCC(=O)NC7=O)nc6)CC5)CC4)c3)c12 (stereo not drawn) [Example 29, 5-(4-((4-(3-(N-(6-((1H-Pyrazol-1-yl)methyl)-4-methoxybenzo[d]isoxazol-3-yl)sulfamoyl)phenyl)piperazin-1-yl)methyl)piperidin-1-yl)-N-(2,6-dioxopiperidin-3-yl) picolinamide] | – | 25 to 50%
5 | COc1cc(Cn2cccn2)cc2onc(NS(=O)(=O)c3cccc(N4CC5(CCN(C[C@H]6CCN(c7ccc8c(c7)C(=O)N(C7CCC(=O)NC7=O)C8=O)C6)CC5)C4)c3)c12 (stereo partly drawn) [Example 35, N-(6-((1H-pyrazol-1-yl)methyl)-4-methoxybenzo[d]isoxazol-3-yl)-3-(7-(((3R)-1-(2-(2,6-dioxopiperidin-3-yl)-1,3-dioxoisoindolin-5-yl)pyrrolidin-3-yl)methyl)-2,7-diazaspiro[3.5]nonan-2-yl)benzenesulfonamide] | < 10 nM | 50 to 75%
6 | COc1cc(Cn2cccn2)cc2onc(NS(=O)(=O)c3cccc(N4CCN(CC5CN(c6ccc7c(c6)C(=O)N(C6CCC(=O)NC6=O)C7=O)C5)CC4)c3)c12 (stereo not drawn) [Example 42, N-(6-((1H-pyrazol-1-yl)methyl)-4-methoxybenzo[d]isoxazol-3-yl)-3-(4-((1-(2-(2,6-dioxopiperidin-3-yl)-1,3-dioxoisoindolin-5-yl)azetidin-3-yl)methyl)piperazin-1-yl)benzenesulfonamide] | 10 to 100 nM | 50 to 75%
7 | COc1ccc(N2CC3(CCN(CC4CCN(c5ccc6c(c5)C(=O)N(C5CCC(=O)NC5=O)C6=O)C4)CC3)C2)cc1S(=O)(=O)Nc1noc2cc(Cn3cccn3)cc(OC)c12 (stereo not drawn) [Example 41, N-(6-((1H-pyrazol-1-yl)methyl)-4-methoxybenzo[d]isoxazol-3-yl)-5-(7-((1-(2-(2,6-dioxopiperidin-3-yl)-1,3-dioxoisoindolin-5-yl)pyrrolidin-3-yl)methyl)-2,7-diazaspiro[3.5]nonan-2-yl)-2-methoxybenzenesulfonamide] | < 10 nM | 50 to 75%
8 | COc1cc(Cn2cccn2)cc2onc(NS(=O)(=O)c3cccc(N4CCN(CC5CCN(c6ccc7c(c6)C(=O)N(C6CCC(=O)NC6=O)C7=O)C5)C(C)(C)C4)c3)c12 (stereo not drawn) [Example 21, N-(6-((1H-Pyrazol-1-yl)methyl)-4-methoxybenzo[d]isoxazol-3-yl)-3-(4-((1-(2-(2,6-dioxopiperidin-3-yl)-1,3-dioxoisoindolin-5-yl)pyrrolidin-3-yl)methyl)-3,3-dimethylpiperazin-1-yl)benzenesulfonamide] | 100 to 1000 nM | 50 to 75%
9 | COc1c(N2CC3(CCN(C[C@@H]4CCN(c5ccc6c(c5)CN(C5CCC(=O)NC5=O)C6=O)C4)CC3)C2)cccc1S(=O)(=O)Nc1noc2cc(Cn3cccn3)cc(OC)c12 (stereo partly drawn) [Example 26, N-(6-((1H-Pyrazol-1-yl)methyl)-4-methoxybenzo[d]isoxazol-3-yl)-3-(7-(((3S)-1-(2-(2,6-dioxopiperidin-3-yl)-1-oxoisoindolin-5-yl)pyrrolidin-3-yl)methyl)-2,7-diazaspirononan-2-yl)-2-methoxybenzenesulfonamide] | < 10 nM | > 75%
10 | COc1cc(Cn2cccn2)cc2onc(NS(=O)(=O)c3cccc(N4CCC5(CC4)CN(C[C@@H]4CCN(c6ccc7c(c6)C(=O)N(C6CCC(=O)NC6=O)C7=O)C4)C5)c3)c12 (stereo partly drawn) [Example 14, N-(6-((1H-Pyrazol-1-yl)methyl)-4-methoxybenzo[d]isoxazol-3-yl)-3-(2-(((3S)-1-(2-(2,6-dioxopiperidin-3-yl)-1,3-dioxoisoindolin-5-yl)pyrrolidin-3-yl)methyl)-2,7-diazaspiro[3.5]nonan-7-yl)benzenesulfonamide] | < 10 nM | 50 to 75%
11 | COc1cc(Cn2cccn2)cc2onc(NS(=O)(=O)c3cccc(N4CC5(CCN(C6CC7(CCN(c8ccc9c(c8)C(=O)N(C8CCC(=O)NC8=O)C9=O)C7)C6)CC5)C4)c3)c12 (stereo not drawn) [Example 22, N-(6-((1H-Pyrazol-1-yl)methyl)-4-methoxybenzo[d]isoxazol-3-yl)-3-(7-(6-(2-(2,6-dioxopiperidin-3-yl)-1,3-dioxoisoindolin-5-yl)-6-azaspiro[3.4]octan-2-yl)-2,7-diazaspiro[3.5]nonan-2-yl)benzenesulfonamide] | < 10 nM | 50 to 75%
12 | COc1cc(Cn2cccn2)cc2onc(NS(=O)(=O)c3cccc(N4CC5(CCN(CC6CCN(c7ccc8c(c7)CN(C7CCC(=O)NC7=O)C8=O)C6)CC5)C4)c3)c12 (stereo not drawn) [Example 33, N-(6-((1H-pyrazol-1-yl)methyl)-4-methoxybenzo[d]isoxazol-3-yl)-3-(7-((1-(2-(2,6-dioxopiperidin-3-yl)-1-oxoisoindolin-5-yl)pyrrolidin-3-yl)methyl)-2,7-diazaspirononan-2-yl)benzenesulfonamide] | < 10 nM | > 75%
13 | COc1cc(Cn2cccn2)cc2onc(NS(=O)(=O)c3cccc(N4C[C@@H]5CN(C[C@@H]6CCN(c7ccc8c(c7)CN([C@H]7CCC(=O)NC7=O)C8=O)C6)C[C@H]5C4)c3)c12 [Example 40, N-(6-((1H-Pyrazol-1-yl)methyl)-4-methoxybenzo[d]isoxazol-3-yl)-3-((3aS,6aS)-5-(((S)-1-(2-((S)-2,6-dioxopiperidin-3-yl)-1-oxoisoindolin-5-yl)pyrrolidin-3-yl)methyl)hexahydropyrrolo[3,4-c]pyrrol-2(1H)-yl)benzenesulfonamide] | < 10 nM | > 75%
14 | COc1cc(Cn2cccn2)cc2onc(NS(=O)(=O)c3cccc(N4CCN(CC5CN(c6ccc7c(c6)C(=O)N(C6CCC(=O)NC6=O)C7=O)CCO5)CC4)c3)c12 (stereo not drawn) [Example 18, N-(6-((1H-Pyrazol-1-yl)methyl)-4-methoxybenzo[d]isoxazol-3-yl)-3-(4-((4-(2-(2,6-dioxopiperidin-3-yl)-1,3-dioxoisoindolin-5-yl)morpholin-2-yl)methyl)piperazin-1-yl)benzenesulfonamide] | – | 25 to 50%
15 | COc1cc(Cn2cccn2)cc2onc(NS(=O)(=O)c3cccc(N4CC5(CCN(C[C@@H]6CCN(c7ccc8c(c7)CN([C@H]7CCC(=O)NC7=O)C8=O)C6)CC5)C4)c3)c12 [Example 28, N-(6-((1H-Pyrazol-1-yl)methyl)-4-methoxybenzo[d]isoxazol-3-yl)-3-(7-(((S)-1-(2-((S)-2,6-dioxopiperidin-3-yl)-1-oxoisoindolin-5-yl)pyrrolidin-3-yl)methyl)-2,7-diazaspiro[3.5]nonan-2-yl)benzenesulfonamide] | < 10 nM | > 75%
16 | COc1cc(Cn2cccn2)cc2onc(NS(=O)(=O)c3cccc(N(C)C4CCN(C[C@@H]5CCN(c6ccc7c(c6)CN([C@H]6CCC(=O)NC6=O)C7=O)C5)CC4)c3)c12 [Example 37, N-(6-((1H-Pyrazol-1-yl)methyl)-4-methoxybenzo[d]isoxazol-3-yl)-3-((1-(((S)-1-(2-((S)-2,6-dioxopiperidin-3-yl)-1-oxoisoindolin-5-yl)pyrrolidin-3-yl)methyl)piperidin-4-yl)(methyl)amino)benzenesulfonamide] | < 10 nM | 50 to 75%
17 | COc1cc(Cn2cccn2)cc2onc(NS(=O)(=O)c3cccc(N4CCC5(CCN(CC6CCN(c7ccc8c(c7)C(=O)N(C7CCC(=O)NC7=O)C8=O)C6)CC5)CC4)c3)c12 (stereo not drawn) [Example 20, N-(6-((1H-Pyrazol-1-yl)methyl)-4-methoxybenzo[d]isoxazol-3-yl)-3-(9-((1-(2-(2,6-dioxopiperidin-3-yl)-1,3-dioxoisoindolin-5-yl)pyrrolidin-3-yl)methyl)-3,9-diazaspiro[5.5]undecan-3-yl)benzenesulfonamide] | < 10 nM | > 75%
18 | COc1cc(Cn2cccn2)cc2onc(NS(=O)(=O)c3cccc(N4CCN(CC5CCN(c6cccc7c6C(=O)N(C6CCC(=O)NC6=O)C7=O)C5)CC4)c3)c12 (stereo not drawn) [Example 31, N-(6-((1H-Pyrazol-1-yl)methyl)-4-methoxybenzo[d]isoxazol-3-yl)-3-(4-((1-(2-(2,6-dioxopiperidin-3-yl)-1,3-dioxoisoindolin-4-yl)pyrrolidin-3-yl)methyl)piperazin-1-yl)benzenesulfonamide] | 100 to 1000 nM | 50 to 75%
